Article PMC7076352 (Pharmaceutics, 2020)

What was measured:
[1] = in vivo; parameters: species or system Sprague-Dawley (SD) rats; details: Sprague-Dawley, plasma, rat
Protocol: At each time, 0.5 mL of blood was collected in the heparin sodium tubes. Plasma was separated by centrifugation at 4000 rpm for 10 min and stored below −80 °C until bioanalysis. Oasis PRiME HLB SPE cartridges (1 cc/30 mg, Waters, Milford, MA, USA) were used to process the plasma samples (Supplementary Materials).
The generic layout of instrumentation setup of the LVDI-UHPLC-MS/MS was conducted on a Shimadzu UHPLC system consisting of two LC-20ADXR pumps, a DGU-20A3R degasser, and a CBM-20A controller (Kyoto, Japan) with a SCIEX 4500 QTRAP mass spectrometer mounted with an electron spray ionization (ESI) interface as well as an electronic 6-port/2-channel valve (Foster City, CA, USA). Analyst software package (version 1.6.2, SCIEX) was implemented to control and synchronize the entire system, and also for data acquisition and processing. A single analytical run was fragmented into two phases, namely, loading and elution phases, by switching the electronic valve (Figure 2). At the loading phase, the valve was maintained at A-channel. The specimen aliquot of large volume delivered from the auto-sampler was captured onto a guard column. Meanwhile, the pumps were responsible for delivering the mobile phase at a high flow rate, aiming to dilute the sample solvent, thus facilitating the candidate constituents to concentrate on the pre-guard column. Then, the valve was automatically switched to the B-channel to trigger the elution phase. The trapped components were flushed from the pre-guard column into an analytical column, and underwent multiple reaction monitoring (MRM) analysis on the optimized LC gradients. The detailed information of LVDI-UHPLC-MS/MS analysis for pharmacokinetic and cocktail studies is shown in the Supplementary Materials section.

[2] = system: CYP2C19; experiment: In vitro cocktail CYP450 activity assay in rat liver microsomes, CYP2C19 (omeprazole probe)
Protocol: (§1) (OHBUP-[D6]) and 5 nM 4′-hydroxydiclofenac-[^13C6] (OHDIC-[^13C6]) as internal standards (ISs). […]
(§2) standard addition experiments. Each group included four concentration levels. For the PK […]
(§3) The probe compounds, viz. […]
(§4) chosen after incubating all the recruited substrates. In order to assure the linear relationship […]
(§5) The incubation system was also optimized in terms of substrate concentrations. The substrates concentrations of […]

[3] = system: CYP2B6; experiment: In vitro cocktail CYP450 activity assay in rat liver microsomes, CYP2B6 (bupropion probe); details: Sprague-Dawley, rat, pooled rat liver microsomes, pH 7.4, probe bupropion (90 µM, in seven-probe cocktail), IC50 CYP2B6, single components; RLM 0.2 mg/mL, 15 min, triplicate, mean ± SD
Protocol: as §1, §2, §3, §4, §5

[4] = system: CYP2C9; experiment: In vitro cocktail CYP450 activity assay in rat liver microsomes, CYP2C9 (tolbutamide probe)
Protocol: as §1, §2, §3, §4, §5

[5] = system: CYP2D6; experiment: in vitro; details: Sprague-Dawley, rat
Protocol: as §1, §2, §3, §4, §5

[6] = system: CYP3A4; experiment: in vitro; details: Sprague-Dawley, rat, pH 7.4
Protocol: as §1, §2, §3, §4, §5

[7] = target: T1, CYP1A2 (Rattus norvegicus, UniProt P04799); experiment: In vitro cocktail CYP450 activity assay in rat liver microsomes, CYP1A2 (phenacetin probe)
T1 sequence (P04799 1-513): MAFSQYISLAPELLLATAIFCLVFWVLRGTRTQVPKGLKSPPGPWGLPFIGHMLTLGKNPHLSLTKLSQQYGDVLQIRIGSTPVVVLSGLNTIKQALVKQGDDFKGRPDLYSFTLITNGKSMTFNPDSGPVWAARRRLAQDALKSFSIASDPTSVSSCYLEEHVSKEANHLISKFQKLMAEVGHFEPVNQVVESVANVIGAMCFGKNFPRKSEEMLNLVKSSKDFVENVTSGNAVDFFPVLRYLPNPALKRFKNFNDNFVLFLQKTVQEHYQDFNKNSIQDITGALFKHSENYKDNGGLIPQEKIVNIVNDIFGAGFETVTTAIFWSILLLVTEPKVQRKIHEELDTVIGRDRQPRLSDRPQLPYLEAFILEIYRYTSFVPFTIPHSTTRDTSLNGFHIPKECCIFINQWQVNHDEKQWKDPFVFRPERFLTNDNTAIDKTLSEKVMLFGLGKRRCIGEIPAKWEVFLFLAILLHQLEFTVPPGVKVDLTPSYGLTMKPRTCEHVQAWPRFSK
Protocol: as §1, §2, §3, §4, §5

[8] = target: T2, CYP2E1 (Rattus norvegicus, UniProt P05182); details: IC50 CYP2E1, single components; RLM 0.2 mg/mL, 15 min, triplicate, mean ± SD
T2 sequence (P05182 whole entry): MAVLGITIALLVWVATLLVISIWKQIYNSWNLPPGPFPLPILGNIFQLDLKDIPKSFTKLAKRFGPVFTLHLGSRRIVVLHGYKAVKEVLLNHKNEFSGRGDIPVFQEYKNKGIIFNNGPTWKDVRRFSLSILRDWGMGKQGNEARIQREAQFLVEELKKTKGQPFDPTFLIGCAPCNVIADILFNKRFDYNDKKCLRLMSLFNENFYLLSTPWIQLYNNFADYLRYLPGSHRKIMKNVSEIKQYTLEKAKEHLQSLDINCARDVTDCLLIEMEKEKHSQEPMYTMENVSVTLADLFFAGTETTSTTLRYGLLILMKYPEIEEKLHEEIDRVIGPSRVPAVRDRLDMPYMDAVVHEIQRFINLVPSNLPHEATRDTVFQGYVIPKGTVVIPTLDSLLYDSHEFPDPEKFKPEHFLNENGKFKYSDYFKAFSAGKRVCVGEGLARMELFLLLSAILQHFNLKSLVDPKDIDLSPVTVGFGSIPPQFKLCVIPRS

[9] = target: T2, CYP2E1; details: at the Cmax level in rat plasma, calculated from the dose–response curve
[10] = at the Cmax level in rat plasma, calculated from the dose–response curve

SMILES: CC(C)=CCC[C@](C)(O[C@@H]1O[C@H](CO)[C@@H](O)[C@H](O)[C@H]1O)[C@H]1CC[C@]2(C)[C@@H]1[C@H](O)C[C@@H]1[C@@]3(C)CC[C@H](O[C@@H]4O[C@H](CO)[C@@H](O)[C@H](O)[C@H]4O[C@@H]4O[C@H](CO)[C@@H](O)[C@H](O)[C@H]4O)C(C)(C)[C@@H]3CC[C@]12C [GRd, ginsenoside Rd]
- concentration at […] ([1]; 0.083 h after oral CNP): 6.63 ± 0.64 ng/mL
- concentration at 0.25 h ([1]; 0.25 h after oral CNP): 7.13 ± 0.69 ng/mL
- concentration at 0.5 h ([1]; 0.5 h after oral CNP): 12.5 ± 4.73 ng/mL
- concentration at 1 h ([1]; 1 h after oral CNP): 13.5 ± 3.67 ng/mL
- concentration at 1.5 h ([1]; 1.5 h after oral CNP): 12.8 ± 1.79 ng/mL
- concentration at 2 h ([1]; 2 h after oral CNP): 17.6 ± 5.2 ng/mL
- concentration at 3 h ([1]; 3 h after oral CNP): 18.7 ± 7.48 ng/mL
- concentration at 4 h ([1]; 4 h after oral CNP): 25 ± 15.8 ng/mL
- concentration at 6 h ([1]; 6 h after oral CNP): 24.9 ± 13.1 ng/mL
- concentration at 8 h ([1]; 8 h after oral CNP): 15.6 ± 5.29 ng/mL
- concentration at 12 h ([1]; 12 h after oral CNP): 12.4 ± 7.03 ng/mL
- concentration at 24 h ([1]; 24 h after oral CNP): 2.85 ± 0.67 ng/mL
- concentration at 48 h ([1]; 48 h after oral CNP): 3.96 ± 0.34 ng/mL
- concentration at 72 h ([1]; 72 h after oral CNP): 2.32 ± 0.12 ng/mL
- AUC(0-inf) ([1]; po, 60 mg/kg): 619 ± 157 ng·h/mL
- AUC(0-t) ([1]; po, 60 mg/kg): 461 ± 117 ng·h/mL
- Cmax ([1]; po, 60 mg/kg): 29.4 ± 10.7 ng/mL
- Tmax ([1]; po, 60 mg/kg): 4.5 ± 1.76 h
- half-life ([1]; po, 60 mg/kg): 2560 ± 530 min
- concentration at 0.25 h ([1]; po, 60 mg·kg^−1): 9 ± 2.12 ng/mL
- concentration at 0.5 h ([1]; po, 60 mg·kg^−1): 11.5 ± 0.97 ng/mL
- concentration at 1 h ([1]; po, 60 mg·kg^−1): 13.9 ± 4.94 ng/mL
- concentration at 1.5 h ([1]; po, 60 mg·kg^−1): 14.9 ± 3.51 ng/mL
- concentration at 2 h ([1]; po, 60 mg·kg^−1): 19.2 ± 6.71 ng/mL
- concentration at 3 h ([1]; po, 60 mg·kg^−1): 22.3 ± 14.6 ng/mL
- concentration at 4 h ([1]; po, 60 mg·kg^−1): 23.9 ± 12.6 ng/mL
- concentration at 6 h ([1]; po, 60 mg·kg^−1): 26.2 ± 10.4 ng/mL
- concentration at 8 h ([1]; po, 60 mg·kg^−1): 16.7 ± 7.24 ng/mL
- concentration at 12 h ([1]; po, 60 mg·kg^−1): 8.73 ± 3.74 ng/mL
- concentration at 24 h ([1]; po, 60 mg·kg^−1): 3.57 ± 1.4 ng/mL
- concentration at 48 h ([1]; po, 60 mg·kg^−1): 4.15 ± 1.97 ng/mL
- concentration at 72 h ([1]; po, 60 mg·kg^−1): 2.52 ± 0.63 ng/mL
- IC50 at 15 min ([2]; Sprague-Dawley, rat, pooled rat liver microsomes, pH 7.4, probe omeprazole (1.07 µM, in seven-probe cocktail), IC50 CYP2C19, single components, RLM 0.2 mg/mL, 15 min, triplicate, mean ± SD): 71.4 ± 14.3 µM
- Response (% control) CYP2C19 [2, 10]: 99.95 % control
- IC50 at 15 min [3]: > 200 µM
- IC50 at 15 min ([4]; Sprague-Dawley, rat, pooled rat liver microsomes, pH 7.4, probe tolbutamide (18 µM, in seven-probe cocktail), IC50 CYP2C9, single components, RLM 0.2 mg/mL, 15 min, triplicate, mean ± SD): 73 ± 3.71 µM
- Response (% control) CYP2C9 [4, 10]: 99.97 % control
- Response (% control) CYP2D6 ([5]; 15 min, pH 7.4): 99.99 % control
- IC50 at 15 min ([5]; microsomes, pH 7.4, IC50 CYP2D6): 64.8 ± 11.7 µM
- Response (% control) CYP3A4 ([6]; 15 min): 85.25 % control
- IC50 at 15 min ([6]; microsomes): 61.4 ± 14.3 µM
- IC50 ([7]; IC50 CYP1A2, single components, RLM 0.2 mg/mL, 15 min, triplicate, mean ± SD): 4.36 ± 2.31 µM
- Response (% control) CYP1A2 [7, 10]: 71.33 % control
- IC50 [8]: 43.46 ± 0.06 µM
- Response (% control) CYP2E1 [9]: 98.16 % control
